# Laboratory results taken from ChEMBL document CHEMBL5528018, “Whole cell hydride Meisenheimer complex biotransformation guided optimization of antimycobacterial benzothiazinones” (Eur J Med Chem, 2024).
# Assays:
# [1] = Selectivity index, ratio of CC50 for cytotoxicity against human HeLa cells to MIC for antitubercular activity against Mycobacterium tuberculosis H37Rv; format: toxicity, cell-based; settings: read-out: Selectivity Index
# [2] = Metabolic stability in human liver microsomes assessed as half life at 20 uM measured upto 90 mins in presence of NADP regenerating system by high-resolution mass spectrometry; format: ADME, Microsome
# [3] = test system: Mycobacterium tuberculosis; experiment: Antitubercular activity against Mycobacterium tuberculosis H37Rv by resazurin dye based microtiter plate assay; format: functional
# [4] = Metabolic stability in human liver microsomes assessed as intrinsic clearance at 20 uM measured upto 90 mins in presence of NADP regenerating system by high-resolution mass spectrometry; format: ADME, Microsome; settings: read-out: CLH
# [5] = Metabolic stability in human liver microsomes assessed as hepatic extraction ratio at 20 uM measured upto 90 mins in presence of NADP regenerating system by high-resolution mass spectrometry; format: ADME, Microsome; settings: read-out: ERH
# [6] = Cytotoxicity against human HeLa cells assessed as cytolytic effect incubated for 72 hrs by methylene blue staining based colorimetric analysis; format: toxicity, cell-based
# [7] = Metabolic stability in human liver assessed as intrinsic clearance at 20 uM measured upto 90 mins in presence of NADP regenerating system by high-resolution mass spectrometry; format: ADME, tissue-based; settings: read-out: CLH
# [8] = Tmax in mouse RAW264.7 cells at 77 uM incubated for 8 hrs by UHPLC-HRMS analysis; format: ADME, cell-based
# [9] = Cmax in mouse RAW264.7 cells at 77 uM incubated for 8 hrs by UHPLC-HRMS analysis; format: ADME, cell-based
# [10] = Half life in mouse RAW264.7 cells at 77 uM incubated for 8 hrs by UHPLC-HRMS analysis; format: ADME, cell-based
# [11] = Cmax in BALB/cAnNCrl mouse at 250 mg/kg, po measured upto 24 hrs by UHPLC-HRMS analysis; format: ADME, organism-based; settings: in vivo
# [12] = Drug metabolism in BALB/c cAnNCrl mouse assessed as HMC metabolite formation at 250 mg/kg, po measured upto 24 hrs by UHPLC-HRMS analysis; format: ADME, organism-based; settings: in vivo
# [13] = AUC (0 to infinity) in BALB/cAnNCrl mouse at 250 mg/kg, po measured upto 24 hrs by UHPLC-HRMS analysis; format: ADME, organism-based; settings: in vivo
# [14] = test system: Mycobacterium tuberculosis; experiment: Antitubercular activity against Mycobacterium tuberculosis H37Rv infected in BALB/c mouse assessed as reduction of colony forming unit in spleen administered once daily for 6 weeks by agar dilution method; format: functional, organism-based; settings: dose 25-250 mg/kg/day, route po
# [15] = Apparent volume of distribution during terminal phase in BALB/cAnNCrl mouse at 250 mg/kg, po measured upto 24 hrs by UHPLC-HRMS analysis; format: ADME, organism-based; settings: in vivo, read-out: Vz/F
# [16] = test system: Mycobacterium tuberculosis; experiment: Antitubercular activity against Mycobacterium tuberculosis H37Rv infected in BALB/c mouse assessed as reduction of colony forming unit in lung administered once daily for 6 weeks by agar dilution method; format: functional, organism-based; settings: dose 25-250 mg/kg/day, route po
# [17] = Toxicity in BALB/c mouse infected with Mycobacterium tuberculosis H37Rv assessed as drug tolerance at 25 to 250 mg/kg/day, po qd administered for 6 weeks; format: organism-based; settings: in vivo, 1008 h, dose 25-250 mg/kg/day
# [18] = Half life in BALB/cAnNCrl mouse at 250 mg/kg, po measured upto 24 hrs by UHPLC-HRMS analysis; format: ADME, organism-based; settings: in vivo
# [19] = Tmax in BALB/cAnNCrl mouse at 250 mg/kg, po measured upto 24 hrs by UHPLC-HRMS analysis; format: ADME, organism-based; settings: in vivo
# [20] = Apparent oral clearance in BALB/cAnNCrl mouse at 250 mg/kg measured upto 24 hrs by UHPLC-HRMS analysis; format: ADME, organism-based; settings: in vivo
# [21] = Stability in mouse RAW264.7 cells assessed as parent compound remaining at 77 uM after 8 hrs by UHPLC-HRMS analysis; format: ADME, cell-based; settings: read-out: Stability
# [22] = Drug metabolism in CD1 mouse liver assessed as hydride meisenheimer complex formation by UHPLC-HRMS analysis; format: ADME, tissue-based
# [23] = Drug metabolism in CD1 mouse muscle assessed as hydride meisenheimer complex formation by UHPLC-HRMS analysis; format: ADME, tissue-based, Muscle tissue
# [24] = Drug metabolism in goat assessed as hydride meisenheimer complex formation by UHPLC-HRMS analysis; format: ADME, Capra hircus
# [25] = Drug metabolism in sheep assessed as hydride meisenheimer complex formation by UHPLC-HRMS analysis; format: ADME, Ovis aries
# [26] = Drug metabolism in CD1 mouse kidney assessed as hydride meisenheimer complex formation by UHPLC-HRMS analysis; format: ADME, tissue-based
# [27] = Drug metabolism in CD1 mouse brain assessed as hydride meisenheimer complex formation by UHPLC-HRMS analysis; format: ADME, tissue-based
# [28] = Drug metabolism in CD1 mouse blood assessed as hydride meisenheimer complex formation by UHPLC-HRMS analysis; format: ADME, tissue-based
# [29] = Drug metabolism in CD1 mouse heart assessed as hydride meisenheimer complex formation by UHPLC-HRMS analysis; format: ADME, tissue-based
# [30] = Drug metabolism in CD1 mouse lung assessed as hydride meisenheimer complex formation by UHPLC-HRMS analysis; format: ADME, tissue-based
# [31] = Drug metabolism in rat assessed as hydride meisenheimer complex formation by UHPLC-HRMS analysis; format: ADME
# [32] = Drug metabolism in CD1 mouse spleen assessed as hydride meisenheimer complex formation by UHPLC-HRMS analysis; format: ADME, tissue-based
# [33] = Drug metabolism in cattle assessed as hydride meisenheimer complex formation by UHPLC-HRMS analysis; format: ADME, Bos taurus
Structure (SMILES),selectivity ratio [1],half-life at 20 µM [2] [h],MIC [3] [µM],microsomal CLint at 20 µM [4] [µL/min/mg],"hepatic extraction ratio at 1.5 h, 20 µM [5]",CC50 at 72 h [6] [µM],CLint scaled at 20 µM [7] [L/h/kg],other results
Cc1c(C(F)(F)F)cc2c(=O)nc(N3CCC4(CC3)OC[C@H](C)O4)sc2c1[N+](=O)[O-],104,2.75,0.842,8.5,0.329,87,0.588,–
O=c1nc(N2CCC(Oc3ccc(OC(F)(F)F)cc3)CC2)sc2c([N+](=O)[O-])cc(C(F)(F)F)cc12,16700,–,0.0056,–,–,> 93,–,–
C[C@H]1COC2(CCN(c3nc(=O)c4cc(C(F)(F)F)cc(N)c4s3)CC2)O1,–,–,–,–,–,–,–,Tmax at 77 µM [8]: 8 h; Cmax at 77 µM [9]: 2 µg/mL; half-life at 77 µM [10]: 13 h
Cc1c(C(F)(F)F)cc([N+](=O)[O-])c2sc(N3CCN(CC4CCCCC4)CC3)nc(=O)c12,50000,0.692,0.056,33.7,0.661,53,2.34,–
Cc1c(C(F)(F)F)cc2c(=O)nc(N3CCC(Oc4ccc(OC(F)(F)F)cc4)CC3)sc2c1[N+](=O)[O-],25,1.13,3.64,20.6,0.543,> 91,1.43,–
Cc1c(C(F)(F)F)cc2c(=O)nc(N3CCN(CC4CCCCC4)CC3)sc2c1[N+](=O)[O-],80,–,0.797,–,–,64,–,–
O=c1nc(N2CCN(CC3CCCCC3)CC2)sc2c([N+](=O)[O-])cc(C(F)(F)F)cc12 [MACOZINONE],100000,–,0.0011,–,–,> 110,–,–
Cc1c(C(F)(F)F)cc([N+](=O)[O-])c2sc(N3CCC4(CC3)OC[C@H](C)O4)nc(=O)c12,8330,1.7,0.053,13.7,0.443,> 110,0.954,"Cmax [11]: 2.41 µg/mL; Tmax at 77 µM [8]: 0.17 h; Drug metabolism [12]: Metabolite_Notdetected; AUC [13]: 15.6 µg·h/mL; Cmax at 77 µM [9]: 0.504 µg/mL; half-life at 77 µM [10]: 20.2 h; Activity [14]: Dose-Dependent Effect; Vd/F [15]: 108 L/kg; Activity [16]: Dose-Dependent Effect; Activity [17]: Non-Toxic; half-life [18]: 4.6 h; Tmax [19]: 0.5 h; CL/F [20]: 16 L/h/kg; remaining at 8 h, 77 µM [21]: 76.6%"
Cc1c(C(F)(F)F)cc2c(=O)nc(N3CCN(S(=O)(=O)c4ccc(OC(F)(F)F)cc4)CC3)sc2c1[N+](=O)[O-],13,–,> 6.68,–,–,> 84,–,–
Cc1c(C(F)(F)F)c(C)c2c(=O)nc(N3CCC4(CC3)OC[C@H](C)O4)sc2c1[N+](=O)[O-],21,–,4.35,–,–,93,–,–
C[C@H]1COC2(CCN(c3nc(=O)c4cc(C(F)(F)F)cc([N+](=O)[O-])c4s3)CC2)O1 [BTZ-043],33300,–,0.00348,–,–,> 120,–,Tmax at 77 µM [8]: 0 h; Drug metabolism [22]: Metabolite_Detected; Drug metabolism [23]: Metabolite_Detected; Drug metabolism [24]: Metabolite_Detected; Drug metabolism [25]: Metabolite_Detected; Drug metabolism [26]: Metabolite_Detected; Cmax at 77 µM [9]: 3.95 µg/mL; Drug metabolism [27]: Metabolite_Detected; half-life at 77 µM [10]: 2.3 h; Drug metabolism [28]: Metabolite_Detected; Drug metabolism [29]: Metabolite_Detected; Drug metabolism [30]: Metabolite_Detected; Drug metabolism [31]: Metabolite_Detected; Drug metabolism [32]: Metabolite_Detected; Drug metabolism [33]: Metabolite_Detected
Cc1c(C(F)(F)F)cc([N+](=O)[O-])c2sc(N3CCN(S(=O)(=O)c4ccc(OC(F)(F)F)cc4)CC3)nc(=O)c12,13,–,> 6.68,–,–,> 84,–,–
Cc1c(C(F)(F)F)cc([N+](=O)[O-])c2sc(N3CCC(Oc4ccc(OC(F)(F)F)cc4)CC3)nc(=O)c12,100,0.572,0.91,40.8,0.702,> 91,2.83,–
O=c1nc(N2CCN(S(=O)(=O)c3ccc(OC(F)(F)F)cc3)CC2)sc2c([N+](=O)[O-])cc(C(F)(F)F)cc12,397,–,0.108,–,–,43,–,–
C#Cc1c(C(F)(F)F)cc([N+](=O)[O-])c2sc(N3CCC4(CC3)OC[C@H](C)O4)nc(=O)c12,1,–,> 8.78,–,–,9,–,–
